The test system of the first test is B. pahangi adult worms. The test is described as follows: Parasite motility assay, adult B. pahangi. Particulars: in vitro motility, active at compound concentrations below 1 μM. Format: cell-based, Brugia pahangi. The protocol: Parasite Motility Assays. Adult and microfilariae B. malayi and B. pahangi parasites, harvested from infected jirds, were procured from the NIAID/NIH Filariasis Research Reagent Resource Center (FR3). […] (Athens, Ga.). Adult worms were plated in 24-well plates with 2 mL of Advanced RPMI 1640 medium (Invitrogen) supplemented with 25 mM HEPES, 2 mM L-Glutamine (Invitrogen), 100 U/mL Penicillin (Invitrogen), 100 µg/mL Streptomycin (Invitrogen), […] Amphotericin B solution (Invitrogen), and 5% heat inactivated fetal bovine serum and placed in a 37° C. humidified incubator with 5% CO2. After 24 h, adult worms were selected based upon motility as described below. After scoring for motility, 4-6 highly motile worms were selected for each treatment group and were transferred to new plates. Microfilariae were centrifuged at 5000×g for 5 min, and re-suspended in 2 ml of media. Microfilarial density was determined using a hemocytometer and were plated in a 96-well plate at 80 microfilariae/well with 200 μL of complete media. Treatment groups received compounds (0.1% DMSO) at 1 μM and 100 nM with 0.1% DMSO as a vehicle control. Cultures were incubated at 37° C. in a humidified incubator with 5% CO2. […] The motility of the worms and microfilariae were evaluated every 24 h and analyzed by a one sided unpaired Student's t-test using Microsoft Excel. […]
“2-(3-(5-isoprop- oxypyridin-2- yl)-1,2,4- thiadiazol-5- ylamino)-N,N- dimethyl-5- (trifluoromethyl) nicotinamide [Compound 250]”: the “B. pahangi activity against adult filaria (level E)” value was “E (activity against adult filaria at compound concentrations below 1 μM (activity level E))”.

The subject of a further test is L. sigmodontis adult worms. As to the kind of experiment: Parasite motility assay, adult L. sigmodontis. Format: cell-based, Litomosoides sigmodontis. Particulars: in vitro motility, active at compound concentrations below 1 μM.
On to “2-(3-(5-isoprop- oxypyridin-2- yl)-1,2,4- thiadiazol-5- ylamino)-N,N- dimethyl-5- (trifluoromethyl) nicotinamide [Compound 250]”, for which the “L. sigmodontis activity against adult filaria (level E)” value was “E (activity against adult filaria at compound concentrations below 1 μM (activity level E))”.

The subject of the next test is L. sigmodontis microfilariae. The test is described as follows: Parasite motility assay, L. sigmodontis microfilariae. Format: cell-based, Litomosoides sigmodontis. As to conditions: in vitro motility, active at compound concentrations below 1 μM.
For the molecule “2-(3-(5-isoprop- oxypyridin-2- yl)-1,2,4- thiadiazol-5- ylamino)-N,N- dimethyl-5- (trifluoromethyl) nicotinamide [Compound 250]”, the “L. sigmodontis activity against microfilaria (level D)” value is “D (activity against microfilaria at compound concentrations below 1 μM (activity level D))”.

In a further test the test system is Onchocerca gutturosa Adult Male Worms. As to the kind of experiment: Onchocerciasis in vitro screening model, worm motility score. Format: cell-based. Particulars: in vitro; Onchocerca gutturosa adult male worms; class A/B/C; read-out: O. gutturosa activity level (IC50 or MED).
For orientation: IC50 means the concentration that gives 50% inhibition. In the case of “2-(3-(5-isoprop- oxypyridin-2- yl)-1,2,4- thiadiazol-5- ylamino)-N,N- dimethyl-5- (trifluoromethyl) nicotinamide [Compound 250]”, the IC50 is 500 to 5000 nM.

Regarding `CC(C)Oc1ccnc(-c2nsc(Nc3ncccc3S(=O)(=O)N(C)C)n2)c1` [Compound 308, 2-(3-(4-isoprop-oxypyridin-2-yl)-1,2,4-thiadiazol-5-ylamino)-N,N-dimethyl-pyridine-3-sulfonamide], the IC50 was less than 200 nM.

`CC(=O)N(C)c1nccnc1Nc1nc(-c2cc3c(cn2)N(C(C)C)CC3)ns1` [Compound 309, N-(3-(3-(1-isopropyl-2,3-dihydro-1H-pyrrolo[2,3-c]pyridin-5-yl)-1,2,4-thiadiazol-5-ylamino)pyrazin-2-yl)-N-methylacetamide]: the IC50 is less than 200 nM.

Consider `CC(=O)N(C)c1cccnc1Nc1nc(-c2cc3c(cn2)CN(C(C)C)C3)ns1` [Compound 310, N-(2-(3-(2-isopropyl-2,3-dihydro-1H-pyrrolo[3,4-c]pyridin-6-yl)-1,2,4-thiadiazol-5-ylamino)pyridin-3-yl)-N-methylacetamide], for which the IC50 was in the range of 500 to 5000 nM.

As to `CC(=O)N(C)c1cc(C(F)(F)F)cnc1Nc1nc(-c2cc3c(cn2)CN(C(C)C)C3)ns1` [Compound 311, N-(2-(3-(2-isopropyl-2,3-dihydro-1H-pyrrolo[3,4-c]pyridin-6-yl)-1,2,4-thiadiazol-5-ylamino)-5-(trifluoromethyl)pyridin-3-yl)-N-methylacetamide], the IC50 was less than 200 nM.

Turning to `CC(C)Oc1ccc(-c2nsc(Nc3ncc(C(F)(F)F)cc3N3CCCC3=O)n2)nc1` [Compound 312, 1-(2-(3-(5-isopropoxypyridin-2-yl)-1,2,4-thiadiazol-5-ylamino)-5-(trifluoromethyl)pyridin-3-yl)pyrrolidin-2-one], the IC50 was 500 to 5000 nM.

Turning to `CC(=O)N(C)c1nccnc1Nc1nc(-c2ccc(OC(C)C)cn2)ns1` [Compound 313, N-(3-(3-(5-isopropoxypyridin-2-yl)-1,2,4-thiadiazol-5-ylamino)pyrazin-2-yl)-N-methylacetamide], the IC50 lay in the range of 500 to 5000 nM.

As to `CC(=O)N(C)c1cc(C(F)(F)F)cnc1Nc1nc(-c2ccc(OC(C)C)nn2)ns1` [Compound 314, N-(2-(3-(6-isopropoxy-pyridazin-3-yl)-1,2,4-thiadiazol-5-ylamino)-5-(trifluoromethyl)pyridin-3-yl)-N-methylacetamide], the IC50 lay in the range of 500 to 5000 nM.

For the molecule `Cc1cccnc1Nc1nc(-c2ncc(OC(C)C)cn2)ns1` [Compound 315, 3-(5-isopropoxy-pyrimidin-2-yl)-N-(3-methylpyridin-2-yl)-1,2,4-thiadiazol-5-amine], the 50% inhibitory concentration (IC50) is 500 to 5000 nM.

`CC(=O)N(C)c1cc(C(F)(F)F)cnc1Nc1nc(-c2ncc(OC(C)C)cn2)ns1` [Compound 316, N-(2-(3-(5-isopropoxy-pyrimidin-2-yl)-1,2,4-thiadiazol-5-ylamino)-5-(trifluoromethyl)pyridin-3-yl)-N-methylacetamide]: the IC50 lay in the range of 500 to 5000 nM.

Regarding `CC(=O)N(C)c1cc(C(F)(F)F)cnc1Nc1nc(-c2cc(OC(C)C)ccn2)ns1` [Compound 317, N-(2-(3-(4-isopropoxypyridin-2-yl)-1,2,4-thiadiazol-5-ylamino)-5-(trifluoromethyl)pyridin-3-yl)-N-methylacetamide], the IC50 was less than 200 nM.

Consider `COc1ccnc(-c2nsc(Nc3ncc(C(F)(F)F)cc3N(C)C(C)=O)n2)c1` [Compound 318, N-(2-(3-(4-methoxypyridin-2-yl)-1,2,4-thiadiazol-5-ylamino)-5-(trifluoromethyl)pyridin-3-yl)-N-methylacetamide], for which the IC50 is less than 200 nM.

For the molecule `CC(=O)Nc1ncc(C(F)(F)F)cc1N(C)c1nnc(-c2ccc(OC(C)C)cn2)o1` [Compound 319, N-(3-((5-(5-isopropoxypyridin-2-yl)-1,3,4-oxadiazol-2-yl)(methyl)amino)-5-(trifluoromethyl)pyridin-2-yl)acetamide], the IC50 fell in the range of 500 to 5000 nM.

For the molecule `CC(C)Oc1cnc(-c2nsc(Nc3ncccc3S(=O)(=O)N(C)C)n2)cc1C(F)(F)F` [Compound 320, 2-(3-(5-isopropoxy-4-(trifluoromethyl)pyridin-2-yl)-1,2,4-thiadiazol-5-ylamino)-N,N-dimethyl-pyridine-3-sulfonamide], the half-inhibitory concentration (IC50) was 500 to 5000 nM.

Consider `CC(C)Oc1ccc(-c2nsc(Nc3ncccc3S(=O)(=O)N(C)C)n2)nc1` [Compound 321, 2-(3-(5-isoprop-oxypyridin-2-yl)-1,2,4-thiadiazol-5-ylamino)-N,N-dimethyl-pyridine-3-sulfonamide], for which the IC50 lay in the range of 500 to 5000 nM.

For `CC(C)c1cnc(Nc2nc(-c3cc4c(cn3)N(C)CC4)ns2)cc1C(F)(F)F` [Compound 322, N-(5-isopropyl-4-(trifluoromethyl)pyridin-2-yl)-3-(1-methyl-2,3-dihydro-1H-pyrrolo[2,3-c]pyridin-5-yl)-1,2,4-thiadiazol-5-amine], the IC50 is less than 200 nM.

On to `CC(C)c1cnc(Nc2nc(-c3cc4c(cn3)N(C)CC4)ns2)c(C(F)(F)F)c1` [Compound 323, N-(5-isopropyl-3-(trifluoromethyl)pyridin-2-yl)-3-(1-methyl-2,3-dihydro-1H-pyrrolo[2,3-c]pyridin-5-yl)-1,2,4-thiadiazol-5-amine], for which the IC50 is less than 200 nM.

Take `Cc1cc(C(F)(F)F)cnc1Nc1nc(-c2cc3c(cn2)N(C)CC3)ns1` [Compound 324, 3-(1-methyl-2,3-dihydro-1H-pyrrolo[2,3-c]pyridin-5-yl)-N-(3-methyl-5-(trifluoromethyl)pyridin-2-yl)-1,2,4-thiadiazol-5-amine]: the IC50 is less than 200 nM.

Turning to `CC(=O)N(C)c1cc(C(F)(F)F)cnc1Nc1nc(-c2ccccn2)ns1` [Compound 325, N-methyl-N-(2-(3-(pyridin-2-yl)-1,2,4-thiadiazol-5-ylamino)-5-(trifluoromethyl)pyridin-3-yl)acetamide], the IC50 was less than 200 nM.

Consider `CC(=O)N(C)c1cccnc1Nc1nc(-c2ccc(OC3COC3)cn2)ns1` [Compound 326, N-methyl-N-(2-(3-(5-(oxetan-3-yloxy)pyridin-2-yl)-1,2,4-thiadiazol-5-ylamino)pyridin-3-yl)acetamide], for which the IC50 was 500 to 5000 nM.

Consider `CC(C)OC(=O)c1cccnc1Nc1nc(-c2ccc(OC(C)C)cn2)ns1` [Compound 327, isopropyl 2-(3-(5-isopropoxypyridin-2-yl)-1,2,4-thiadiazol-5-ylamino)nicotinate], for which the IC50 was 500 to 5000 nM.

On to `CC(C)Oc1ccc(-c2nsc(Nc3ncc(C(F)(F)F)cc3C(=O)N3CCCC3)n2)nc1` [Compound 328, (2-(3-(5-isoprop-oxypyridin-2-yl)-1,2,4-thiadiazol-5-ylamino)-5-(trifluoromethyl)pyridin-3-yl)(pyrrolidin-l-yl)methanone], for which the IC50 was 500 to 5000 nM.

Take `CC(=O)N(C)c1cc(C(F)(F)F)cnc1Nc1nc(-c2ccc(OC3COC3)cn2)ns1` [Compound 329, N-methyl-N-(2-(3-(5-(oxetan-3-yloxy)pyridin-2-yl)-1,2,4-thiadiazol-5-ylamino)-5-(trifluoromethyl)pyridin-3-yl)acetamide]: the IC50 lay in the range of 500 to 5000 nM.

On to `CC(=O)N(C)c1cc(C(F)F)cnc1Nc1nc(-c2cc3c(cn2)N(C)CC3)ns1` [Compound 330, N-(5-(difluoro-methyl)-2-(3-(1-methyl-2,3-dihydro-1H-pyrrolo[2,3-c]pyridin-5-yl)-1,2,4-thiadiazol-5-ylamino)pyridin-3-yl)-N-methylacetamide], for which the IC50 lay within 500 to 5000 nM.

The record behind these values is patent US11505548B2, “Heterocyclic compounds and their use for treatment of helminthic infections and diseases” (Celgene Corporation, priority 2019, dated 2022).
